Holding throughout (test): growth of human tumour cells (NCI), 48 h
For assay [1], the system named is 786-0 renal.
The test system of assay [2] is COLO 205 colon.
Assay [3] concerns HCC-2998 colon.
The subject of assay [4] is HS 578T breast.
Assay [5] concerns MOLT-4 leukemia.
Assay [6] deals with NCI-H226 lung.
Assay [7] relates to SF-268 CNS.
Assay [8] has as its system SF-295 CNS.
The test system of assay [9] is SN12C renal.
Assay [10] deals with UACC-257 melanoma.
The subject of assay [11] is A498 renal.

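Five concentrations, 48 hours, 96-well plates. GI50 is the concentration that inhibits growth by half. TGI: total growth inhibition.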

This note sets out measurements from PubChem BioAssay (NCI).

For `CC(=O)OC12OC(C)(C3C(=O)N(c4ccccc4)C(=O)C31)N(c1ccccc1)C2=O` (configuration not stated), the TGI in assay [1], in [2], in assay [3], in assay [4], in assay [5] and in assay [6] was greater than 100 µM each time. Also, the TGI in assay [7], in assay [8], in assay [9] and in assay [10] was greater than 100 µM throughout.
With `CN(C)C=Nc1c2c(nc3ccccc13)CCCC2`, the TGI in assay [1], in [11], in [2], in assay [4], in assay [5] and in assay [6] was greater than 100 µM each time. The TGI in [7], in assay [8], in [9] and in [10] was greater than 100 µM throughout.
Consider `Cn1c(=O)oc2cc(C(=S)N3CCCCC3)ccc21`, for which the TGI in assay [1], in [11], in [2], in assay [4], in assay [5] and in assay [6] was greater than 100 µM throughout. The TGI in assay [7], in [8], in assay [9] and in assay [10] was greater than 100 µM each time.
Consider `C=CC(=C)CCC(Br)C(C)(C)Cl` (configuration not stated), for which the TGI in assay [1], in assay [2], in [3], in assay [4], in [5] and in assay [6] was greater than 100 µM throughout. Besides, the TGI in assay [7], in [8], in [9] and in assay [10] was greater than 100 µM in each case.
In the case of `CNC(=O)c1cc(Oc2cccc3nc(NC(=O)Nc4ccc(F)cc4F)ccc23)ccn1`, the GI50 in [11] is 418 nM; in assay [3], greater than 50 µM; in [4], 1400 nM; in assay [7] it was 1900 nM. Besides, the TGI was 23.3 µM in assay [11], greater than 50 µM in assay [3], 3.99 µM in assay [4] and greater than 50 µM in assay [7].
Consider `COc1ccccc1[C@@H]1CCC2CC[C@@H](c3ccccc3OC)[N+]21Cc1ccccc1` (some centres not stated), for which the TGI in [1] came to 15.4 µM; in assay [11], 7.66 µM; in assay [2], 1.84 µM; in assay [4], 35.8 µM; in [5] it was 7.43 µM; in [6] it was 6.73 µM. Moreover, the TGI in assay [7] was 17.4 µM; in assay [8] it was 8.57 µM; in assay [9], 10.4 µM; in [10], 14.1 µM.
With `O=C1C=CC(=O)[C@H]2C3C=CC(C4C3C3(Cl)C(Cl)=C(Cl)[C@]4(Cl)C3(Cl)Cl)[C@@H]12` (some centres not stated), the TGI in assay [1] is 18.4 µM; in assay [11], 31.7 µM; in [2] it was 19.1 µM; in assay [4], 31.2 µM; in [5] it was 36 µM; in assay [6], 23.5 µM. The TGI in assay [7] is 18.4 µM; in [8] it was 25.2 µM; in [9] it was 18.2 µM; in assay [10] it was 6.23 µM.
For `CC(=O)N1CCN(CCCCN2c3ccccc3Sc3cc(N=[N+]=[N-])ccc32)CC1`, the TGI in [1] amounted to 29.5 µM; in [2], 29.7 µM; in [3], 28.5 µM; in [4], 32.7 µM; in [5] it was 25.3 µM; in [6], 35.5 µM. For the same compound, the TGI amounted to 39.1 µM in [7], 31.5 µM in assay [8], 31.4 µM in assay [9] and 40.2 µM in assay [10].
With `CCOC(=O)CCC(C(=O)OCC)n1nnc2ccc(Nc3c(C)[n+]([O-])c4cc(F)c(OCC)cc4[n+]3[O-])cc21` (configuration not stated), the TGI is greater than 100 µM in assay [1]; greater than 100 µM in assay [11]; 83.5 µM in assay [2]; greater than 100 µM in assay [4]; greater than 100 µM in [5]; greater than 100 µM in assay [6]. Further, the TGI in assay [7] was greater than 100 µM; in [8], greater than 100 µM; in assay [9] it was greater than 100 µM; in assay [10], 42 µM.
In the case of `O=C(c1cccnc1)N1N=C(c2ccc3c(c2)OCO3)CC1(O)c1cc(F)c(Cl)cc1Cl` (configuration not stated), the TGI in assay [1] was 35.2 µM; in assay [2], 31.2 µM; in assay [4] it was greater than 100 µM; in assay [5], greater than 100 µM; in [6] it was 33.3 µM; in assay [7], 49.8 µM. In addition, the TGI in [8] worked out at 59.4 µM; in assay [9] it was 36.5 µM; in assay [10], 51.2 µM.
On to `CCc1n[nH]c(=O)n1N=C(c1ccccc1)c1ccccc1`, for which the TGI in assay [1], in [11], in assay [2], in [4], in assay [5] and in [6] was greater than 100 µM each time. In addition, the TGI in assay [7], in [8], in assay [9] and in assay [10] was greater than 100 µM in each case.
For the compound `COc1cc2nc3n(c(=O)c2cc1OC)CCCCC3`, the TGI in assay [1], in assay [11], in assay [2], in assay [4], in assay [5] and in assay [6] was greater than 100 µM in each case. The TGI in assay [7], in assay [8], in assay [9] and in [10] was greater than 100 µM each time.
As to `C=C(C)[C@@H]1CCC2=C(CC[C@]3(C)[C@@H]([C@@H](CCC=C(C)C)C(=O)O)[C@H](O)C[C@@]23C)[C@@]1(C)CCC(=O)O`, the TGI in [1], in assay [11], in [2], in assay [4], in assay [5] and in [6] was greater than 100 µM in each case. For the same compound, the TGI in [7], in [8], in [9] and in assay [10] was greater than 100 µM in each case.
